Where two headings read alike, the source gives them in different places.
How the values were obtained:
Assay in all cases: biochemical
Set-up in all cases: DiscoveRx KINOMEscan active site-directed competition binding; percent of control kinase bound to immobilised ligand
YES = target: T1, YES (Homo sapiens, UniProt P07947)
T1 construct: gene YES1

PIK3CA(H1047L) = PIK3CA(H1047L) (Homo sapiens, UniProt P42336, H1047L)
AKT3 = AKT3 (Homo sapiens, UniProt Q9Y243)
TIE2 = target: T2, TIE2 (Homo sapiens, UniProt Q02763)
T2 construct: gene TEK
T2 sequence (Q02763 whole entry): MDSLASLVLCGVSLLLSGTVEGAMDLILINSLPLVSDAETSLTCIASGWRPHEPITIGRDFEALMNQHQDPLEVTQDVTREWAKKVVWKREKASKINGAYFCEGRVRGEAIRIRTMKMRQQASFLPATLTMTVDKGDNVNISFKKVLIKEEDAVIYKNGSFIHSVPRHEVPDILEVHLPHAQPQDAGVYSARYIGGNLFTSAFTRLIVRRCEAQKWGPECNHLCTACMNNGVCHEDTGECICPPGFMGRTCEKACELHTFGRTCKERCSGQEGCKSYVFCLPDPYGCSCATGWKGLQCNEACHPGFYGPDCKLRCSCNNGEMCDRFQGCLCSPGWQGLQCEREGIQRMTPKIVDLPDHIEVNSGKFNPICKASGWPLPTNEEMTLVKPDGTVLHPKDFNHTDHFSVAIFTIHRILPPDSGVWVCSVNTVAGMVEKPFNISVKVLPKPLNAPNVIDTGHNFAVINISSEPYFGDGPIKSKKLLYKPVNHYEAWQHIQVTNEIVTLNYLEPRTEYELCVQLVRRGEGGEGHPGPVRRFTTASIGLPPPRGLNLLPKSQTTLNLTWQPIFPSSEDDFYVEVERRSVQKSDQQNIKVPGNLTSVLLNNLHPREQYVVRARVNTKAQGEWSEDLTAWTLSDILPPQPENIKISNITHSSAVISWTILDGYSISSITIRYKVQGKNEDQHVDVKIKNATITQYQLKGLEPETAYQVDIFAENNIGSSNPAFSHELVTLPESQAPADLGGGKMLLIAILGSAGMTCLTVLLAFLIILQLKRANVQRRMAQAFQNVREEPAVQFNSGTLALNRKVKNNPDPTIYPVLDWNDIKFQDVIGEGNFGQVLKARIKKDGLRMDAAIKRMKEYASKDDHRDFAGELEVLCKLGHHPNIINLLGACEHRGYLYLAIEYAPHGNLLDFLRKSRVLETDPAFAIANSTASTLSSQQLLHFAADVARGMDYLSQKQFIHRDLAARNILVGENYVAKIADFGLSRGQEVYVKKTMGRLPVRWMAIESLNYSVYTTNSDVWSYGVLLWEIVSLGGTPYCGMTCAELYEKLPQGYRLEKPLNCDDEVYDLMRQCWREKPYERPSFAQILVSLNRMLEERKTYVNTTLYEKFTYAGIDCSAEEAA

SNRK = target: T3, SNRK (Homo sapiens, UniProt Q9NRH2)
T3 sequence (Q9NRH2 1-765): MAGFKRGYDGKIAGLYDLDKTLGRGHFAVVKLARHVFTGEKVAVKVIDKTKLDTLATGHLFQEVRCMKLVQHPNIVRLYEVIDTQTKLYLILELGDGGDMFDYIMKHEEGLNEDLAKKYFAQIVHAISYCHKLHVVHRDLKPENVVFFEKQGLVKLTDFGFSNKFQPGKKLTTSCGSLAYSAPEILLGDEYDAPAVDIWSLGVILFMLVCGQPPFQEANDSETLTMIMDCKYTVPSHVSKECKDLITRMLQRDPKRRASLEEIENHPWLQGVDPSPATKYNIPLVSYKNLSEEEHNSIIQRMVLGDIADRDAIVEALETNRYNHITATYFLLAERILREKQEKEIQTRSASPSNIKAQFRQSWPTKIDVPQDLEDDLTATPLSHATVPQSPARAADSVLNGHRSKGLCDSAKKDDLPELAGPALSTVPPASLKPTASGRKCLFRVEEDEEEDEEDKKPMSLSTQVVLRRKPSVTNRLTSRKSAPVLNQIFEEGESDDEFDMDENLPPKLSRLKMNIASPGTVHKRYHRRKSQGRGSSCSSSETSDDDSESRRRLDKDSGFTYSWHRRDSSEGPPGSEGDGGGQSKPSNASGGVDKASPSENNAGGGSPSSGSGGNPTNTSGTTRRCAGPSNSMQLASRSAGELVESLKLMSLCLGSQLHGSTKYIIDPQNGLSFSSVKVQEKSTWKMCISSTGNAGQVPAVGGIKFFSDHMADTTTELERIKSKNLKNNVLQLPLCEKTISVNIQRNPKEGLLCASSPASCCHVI

KIT(A829P) = KIT(A829P) (Homo sapiens, UniProt P10721, A829P)
Chain of KIT(A829P) (P10721 whole entry A829P): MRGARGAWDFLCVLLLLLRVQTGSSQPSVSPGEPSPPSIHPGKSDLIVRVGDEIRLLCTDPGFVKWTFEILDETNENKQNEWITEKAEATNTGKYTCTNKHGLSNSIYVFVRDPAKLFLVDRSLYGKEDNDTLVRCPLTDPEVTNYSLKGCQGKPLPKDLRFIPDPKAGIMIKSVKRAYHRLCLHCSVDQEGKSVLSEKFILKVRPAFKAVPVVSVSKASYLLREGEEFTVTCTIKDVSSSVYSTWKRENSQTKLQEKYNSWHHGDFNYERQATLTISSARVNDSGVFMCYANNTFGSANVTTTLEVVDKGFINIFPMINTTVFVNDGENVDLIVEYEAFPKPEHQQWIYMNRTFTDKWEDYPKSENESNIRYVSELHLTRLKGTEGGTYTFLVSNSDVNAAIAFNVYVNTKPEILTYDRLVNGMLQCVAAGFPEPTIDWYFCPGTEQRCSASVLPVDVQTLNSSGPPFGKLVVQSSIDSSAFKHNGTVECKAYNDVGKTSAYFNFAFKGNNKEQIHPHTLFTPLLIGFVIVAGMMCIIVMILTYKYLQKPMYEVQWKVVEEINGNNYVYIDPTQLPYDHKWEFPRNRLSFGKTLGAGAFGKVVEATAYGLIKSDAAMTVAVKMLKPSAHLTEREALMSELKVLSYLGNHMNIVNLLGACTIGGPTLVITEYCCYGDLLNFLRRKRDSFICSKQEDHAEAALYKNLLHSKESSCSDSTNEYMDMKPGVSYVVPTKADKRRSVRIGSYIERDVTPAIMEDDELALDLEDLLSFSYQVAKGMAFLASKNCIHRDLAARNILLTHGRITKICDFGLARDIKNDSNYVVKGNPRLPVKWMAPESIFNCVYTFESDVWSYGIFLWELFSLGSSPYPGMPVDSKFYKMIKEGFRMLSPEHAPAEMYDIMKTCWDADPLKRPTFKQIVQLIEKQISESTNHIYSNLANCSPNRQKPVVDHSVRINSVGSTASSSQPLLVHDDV

FLT3(K663Q) = target: T4, FLT3(K663Q) (Homo sapiens, UniProt P36888, K663Q)
T4 sequence (P36888 1-993 K663Q): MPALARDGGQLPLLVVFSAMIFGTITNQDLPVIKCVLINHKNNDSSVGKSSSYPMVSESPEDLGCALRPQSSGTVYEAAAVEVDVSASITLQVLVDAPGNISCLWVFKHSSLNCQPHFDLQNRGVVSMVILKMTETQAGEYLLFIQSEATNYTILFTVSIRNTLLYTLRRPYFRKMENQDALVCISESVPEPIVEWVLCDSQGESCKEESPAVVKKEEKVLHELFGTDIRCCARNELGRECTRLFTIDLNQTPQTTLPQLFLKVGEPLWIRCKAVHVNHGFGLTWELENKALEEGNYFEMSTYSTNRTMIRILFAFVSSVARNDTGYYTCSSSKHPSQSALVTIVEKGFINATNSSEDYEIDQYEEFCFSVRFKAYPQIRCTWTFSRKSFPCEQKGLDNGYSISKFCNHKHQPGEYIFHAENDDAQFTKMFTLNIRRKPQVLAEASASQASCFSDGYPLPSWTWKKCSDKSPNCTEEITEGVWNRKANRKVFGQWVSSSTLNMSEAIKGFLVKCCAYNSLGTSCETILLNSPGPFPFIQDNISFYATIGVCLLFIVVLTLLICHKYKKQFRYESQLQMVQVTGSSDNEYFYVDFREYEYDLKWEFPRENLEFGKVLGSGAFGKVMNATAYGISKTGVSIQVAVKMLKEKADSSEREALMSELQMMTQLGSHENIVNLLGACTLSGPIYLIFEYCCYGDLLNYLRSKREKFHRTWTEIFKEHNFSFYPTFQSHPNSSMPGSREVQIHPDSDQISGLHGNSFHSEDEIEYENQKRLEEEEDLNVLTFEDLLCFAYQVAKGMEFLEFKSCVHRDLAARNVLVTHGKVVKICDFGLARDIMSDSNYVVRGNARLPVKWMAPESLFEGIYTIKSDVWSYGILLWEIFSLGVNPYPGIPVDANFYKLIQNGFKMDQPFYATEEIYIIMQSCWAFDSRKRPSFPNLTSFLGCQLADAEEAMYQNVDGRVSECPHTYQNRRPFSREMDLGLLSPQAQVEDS

ALK(C1156Y) = ALK(C1156Y) (Homo sapiens, UniProt Q9UM73, C1156Y)
Chain of ALK(C1156Y) (Q9UM73 whole entry C1156Y): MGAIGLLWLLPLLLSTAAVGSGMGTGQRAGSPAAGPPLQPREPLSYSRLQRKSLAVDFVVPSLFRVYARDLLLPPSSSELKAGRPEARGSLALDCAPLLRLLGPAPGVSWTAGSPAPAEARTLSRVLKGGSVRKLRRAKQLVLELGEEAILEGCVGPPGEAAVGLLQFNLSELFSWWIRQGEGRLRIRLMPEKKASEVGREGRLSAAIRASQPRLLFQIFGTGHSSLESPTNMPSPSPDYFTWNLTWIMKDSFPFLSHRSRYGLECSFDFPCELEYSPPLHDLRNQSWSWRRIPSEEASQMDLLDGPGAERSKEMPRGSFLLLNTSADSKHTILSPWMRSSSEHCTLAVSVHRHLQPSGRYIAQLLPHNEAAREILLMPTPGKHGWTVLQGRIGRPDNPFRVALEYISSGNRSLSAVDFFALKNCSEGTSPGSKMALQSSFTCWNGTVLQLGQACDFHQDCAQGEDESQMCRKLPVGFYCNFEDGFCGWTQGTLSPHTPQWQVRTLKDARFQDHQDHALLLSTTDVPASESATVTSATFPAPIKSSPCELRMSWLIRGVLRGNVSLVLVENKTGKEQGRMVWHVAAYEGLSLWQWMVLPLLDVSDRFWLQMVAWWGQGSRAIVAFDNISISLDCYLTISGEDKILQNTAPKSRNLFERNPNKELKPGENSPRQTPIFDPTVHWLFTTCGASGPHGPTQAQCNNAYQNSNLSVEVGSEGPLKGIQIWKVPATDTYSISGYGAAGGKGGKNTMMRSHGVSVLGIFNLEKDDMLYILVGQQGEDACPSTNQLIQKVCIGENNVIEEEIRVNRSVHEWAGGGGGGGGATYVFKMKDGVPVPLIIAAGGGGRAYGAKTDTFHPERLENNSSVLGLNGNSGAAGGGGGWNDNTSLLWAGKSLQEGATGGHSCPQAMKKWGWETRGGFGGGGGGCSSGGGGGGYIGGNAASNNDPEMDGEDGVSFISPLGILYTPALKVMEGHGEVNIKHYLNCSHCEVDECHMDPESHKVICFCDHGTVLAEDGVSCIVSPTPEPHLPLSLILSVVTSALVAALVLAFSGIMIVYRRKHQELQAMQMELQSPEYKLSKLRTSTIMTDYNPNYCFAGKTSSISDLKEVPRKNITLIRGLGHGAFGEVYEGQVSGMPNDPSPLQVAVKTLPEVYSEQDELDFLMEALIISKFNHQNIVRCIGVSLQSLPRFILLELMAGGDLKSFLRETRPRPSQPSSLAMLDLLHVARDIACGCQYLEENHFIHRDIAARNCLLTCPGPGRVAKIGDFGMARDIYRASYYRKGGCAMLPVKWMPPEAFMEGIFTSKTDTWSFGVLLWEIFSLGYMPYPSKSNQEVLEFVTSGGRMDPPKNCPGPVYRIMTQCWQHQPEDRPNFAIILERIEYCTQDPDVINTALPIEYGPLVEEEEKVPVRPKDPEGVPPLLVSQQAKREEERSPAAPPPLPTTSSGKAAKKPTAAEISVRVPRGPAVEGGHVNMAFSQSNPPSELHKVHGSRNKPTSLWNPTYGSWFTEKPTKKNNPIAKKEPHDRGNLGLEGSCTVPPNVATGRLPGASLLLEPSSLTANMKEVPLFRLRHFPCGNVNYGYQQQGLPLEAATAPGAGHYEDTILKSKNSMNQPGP

[1] = read-out: Talazoparib (BMN 673) / %Ctrl @ 10000nM
[2] = read-out: Olaparib / %Ctrl @ 10000nM
[3] = read-out: Niraparib (MK-4827) / %Ctrl @ 10000nM
[4] = read-out: Rucaparib / %Ctrl @ 10000nM, binding competition, % of control

Chain of PIK3CA(H1047L) (P42336 whole entry H1047L): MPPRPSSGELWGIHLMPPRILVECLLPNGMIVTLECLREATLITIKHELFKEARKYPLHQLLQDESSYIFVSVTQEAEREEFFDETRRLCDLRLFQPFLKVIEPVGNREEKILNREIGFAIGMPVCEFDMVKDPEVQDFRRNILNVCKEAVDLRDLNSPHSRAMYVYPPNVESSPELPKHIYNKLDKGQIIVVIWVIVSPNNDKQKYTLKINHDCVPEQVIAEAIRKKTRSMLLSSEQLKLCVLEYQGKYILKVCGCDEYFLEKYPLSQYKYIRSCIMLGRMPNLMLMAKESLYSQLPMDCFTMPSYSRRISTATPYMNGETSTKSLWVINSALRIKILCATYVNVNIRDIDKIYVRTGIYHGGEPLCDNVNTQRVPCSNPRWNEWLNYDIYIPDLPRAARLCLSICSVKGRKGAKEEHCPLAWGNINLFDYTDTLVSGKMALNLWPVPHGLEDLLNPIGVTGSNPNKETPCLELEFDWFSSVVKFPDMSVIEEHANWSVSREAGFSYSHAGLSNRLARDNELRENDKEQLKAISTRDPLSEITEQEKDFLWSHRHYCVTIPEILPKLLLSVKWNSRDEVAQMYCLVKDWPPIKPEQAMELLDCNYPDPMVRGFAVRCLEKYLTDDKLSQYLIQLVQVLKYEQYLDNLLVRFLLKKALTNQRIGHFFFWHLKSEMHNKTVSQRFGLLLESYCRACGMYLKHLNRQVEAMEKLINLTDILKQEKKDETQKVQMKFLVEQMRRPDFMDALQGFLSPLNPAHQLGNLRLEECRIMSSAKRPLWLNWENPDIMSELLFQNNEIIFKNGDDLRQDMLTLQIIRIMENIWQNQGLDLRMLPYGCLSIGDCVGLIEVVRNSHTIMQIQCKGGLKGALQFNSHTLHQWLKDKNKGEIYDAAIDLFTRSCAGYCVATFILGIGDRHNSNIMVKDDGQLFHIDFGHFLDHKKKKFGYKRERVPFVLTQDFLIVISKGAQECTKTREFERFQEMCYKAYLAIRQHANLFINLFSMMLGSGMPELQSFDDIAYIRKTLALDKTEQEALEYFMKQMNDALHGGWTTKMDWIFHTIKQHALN

Work on `Cn1ncnc1[C@H]1c2n[nH]c(=O)c3cc(F)cc(c23)N[C@@H]1c1ccc(F)cc1` [Talazoparib] yielded a percent of control binding at 10 µM (YES; [1]) of 92%, a percent of control binding at 10 µM (PIK3CA(H1047L); [1]) of 100% and a percent of control binding at 10 µM (AKT3; [1]) of 88%. The percent of control binding at 10 µM (TIE2; [1]) was 100%, the percent of control binding at 10 µM (SNRK; [1]) was 100% and the percent of control binding at 10 µM (KIT(A829P); [1]) was 100%. It also gave a percent of control binding at 10 µM (FLT3(K663Q); [1]) of 91% and a percent of control binding at 10 µM (ALK(C1156Y); [1]) of 100%.

`O=C(c1cc(Cc2n[nH]c(=O)c3ccccc23)ccc1F)N1CCN(C(=O)C2CC2)CC1` [Olaparib] was tested, and the percent of control binding at 10 µM (YES; [2]) was 93%, the percent of control binding at 10 µM (PIK3CA(H1047L); [2]) was 87% and the percent of control binding at 10 µM (AKT3; [2]) was 100%. It also gave a percent of control binding at 10 µM (TIE2; [2]) of 100%, a percent of control binding at 10 µM (SNRK; [2]) of 96% and a percent of control binding at 10 µM (FLT3(K663Q); [2]) of 88%. It also gave a percent of control binding at 10 µM (ALK(C1156Y); [2]) of 88%.

In the case of `NC(=O)c1cccc2cn(-c3ccc([C@@H]4CCCNC4)cc3)nc12` [Niraparib], the percent of control binding at 10 µM (YES; [3]) is reported as 83%, the percent of control binding at 10 µM (PIK3CA(H1047L); [3]) is reported as 100% and the percent of control binding at 10 µM (AKT3; [3]) is reported as 97%. The percent of control binding at 10 µM (TIE2; [3]) was 98%, the percent of control binding at 10 µM (SNRK; [3]) was 100% and the percent of control binding at 10 µM (KIT(A829P); [3]) was 98%. It also gave a percent of control binding at 10 µM (FLT3(K663Q); [3]) of 75% and a percent of control binding at 10 µM (ALK(C1156Y); [3]) of 88%.

Molecule `CNCc1ccc(-c2[nH]c3cc(F)cc4c3c2CCNC4=O)cc1` [Rucaparib] has a percent of control binding at 10 µM (YES; [4]) of 99%, a percent of control binding at 10 µM (PIK3CA(H1047L); [4]) of 87% and a percent of control binding at 10 µM (AKT3; [4]) of 100%. It also gave a percent of control binding at 10 µM (TIE2; [4]) of 92%, a percent of control binding at 10 µM (SNRK; [4]) of 80% and a percent of control binding at 10 µM (KIT(A829P); [4]) of 88%. The “Rucaparib / %Ctrl @ 10000nM” value (FLT3(K663Q); binding competition, % of control) was 93% and the percent of control binding at 10 µM (ALK(C1156Y); [4]) was 43%.

Reference: publication PMC7026418, “The kinase polypharmacology landscape of clinical PARP inhibitors” (Scientific Reports, 2020)
